Laboratory results: patent US11219221B2 (FarmHannong Co., Ltd., priority 2017, dated 2022)

Experiments:
Type in all cases: biochemical
[1] = test system: Spirulina subsalsa PPO CyPPO16, wild type, SEQ ID NO: 1; experiment: PPO enzyme kinetics (Vmax); settings: substrate protoporphyrinogen IX
Procedure: (§1) Thus, PPO proteins of wild type and variants were expressed as fused to MBP and were used for experiments.
(§2) Overall process was performed in dark under nitrogen stream. […] of protoporphyrin IX was dissolved in 20 ml of 20% (v/v) EtOH, and stirred under dark condition for 30 minutes. The obtained protoporphyrin IX solution was put into a 15 ml screw tube in an amount of 800 μl, and flushed with nitrogen gas for 5 minutes. To this, 1.5 g of sodium amalgam was added and vigorously shaken for 2 minutes. The lid was opened to exhaust hydrogen gas in the tube. Thereafter, the lid was closed and incubated for 3 minutes. […] To determine the enzyme activity of PPO protein, a reaction mixture was prepared with the following composition (based on 10 ml): 50 mM Tris-Cl (pH 8.0); 50 mM NaCl; 0.04% (v/v) Tween 20; 40 mM glucose (0.072 g); 5 units glucose oxidase (16.6 mg); and 10 units catalase (1 μl).
(§3) Hundred and eighty microliters of a reaction mixture containing the purified PPO protein were placed in 96 well plates and 20 μl of […] were added. […] The reaction proceeded at room temperature for 30 min and the fluorescence of protoporphyrin IX was measured using Microplate reader (Sense, Hidex) (excitation: 405 nm; emission: 633 nm). […] To this, 2.7 N HCl was added, and the absorbance at 408 nm was measured. A standard curve was generated using standard protoporphyrin IX, and PPO activity was measured by calibration of protoporphyrin IX using the standard curve of protoporphyrin IX.
(§4) Meanwhile, the maximal velocity (Vmax) values of each enzyme were determined in order to evaluate the kinetic characteristics of CyPPO16 and CyPPO17. The initial reaction velocity was measured where the reaction velocity was proportional to concentration by varying the substrate concentration. The amount of produced protoporphyrin IX, the enzyme reaction product, was measured by time course at room temperature for 20 minutes. Vmax values were calculated with the enzyme kinetics analysis program by Michaelis-Menten equation.

[2] = test system: Thermosynechococcus sp. NK55a PPO CyPPO17, wild type, SEQ ID NO: 3; experiment: PPO enzyme kinetics (Vmax); settings: substrate protoporphyrinogen IX
Procedure: as §1, §2, §3, §4

[3] = biological target: Spirulina subsalsa PPO CyPPO16 (SEQ ID NO: 1) variant V305M (MBP fusion); experiment: PPO enzyme inhibition (IC50), MBP-fused PPO; settings: 50 μM protoporphyrinogen IX, pH 8.0, room temperature, 30 min
Procedure: as §1
(§5) The following process for purification of PPO protein was performed in a 4° C. cold room. Amylose resin (NEB) was packed to 1.5×15 cm column (Bio-Rad, Econo Columns 1.5×15 cm, glass chromatography column, max. vol), and the obtained protein extracts were loaded to the column at a flow rate of 0.2 ml/min. The column was washed with 3 column volumes of buffer and the presence of protein in the washing solution was examined. When the protein was no longer detected, the washing procedure was terminated. Then, the MBP-PPO protein was eluted with approximately 2 column volumes of buffer containing 20 mM maltose. The protein concentration of each eluent was determined and the elution was stopped when the protein was no longer detected. Ten microliter of each fraction was investigated for protein quantification and SDS-PAGE analysis. The highly pure fractions of PPO protein variants were used for the enzyme assay.
(§6) Since protoporphyrinogen IX, a substrate of PPO protein, was not commercially available, it was chemically synthesized in the laboratory. Overall process was performed in dark under nitrogen stream. […] of protoporphyrin IX was dissolved in 20 ml of 20% (v/v) EtOH, and stirred under dark condition for 30 minutes. The obtained protoporphyrin IX solution was put into a 15 ml screw tube in an amount of 800 μl, and flushed with nitrogen gas for 5 minutes. To this, 1.5 g of sodium amalgam was added and vigorously shaken for 2 minutes. The lid was opened to exhaust hydrogen gas in the tube. Thereafter, the lid was closed and incubated for 3 minutes. The protoporphyrinogen IX solution was filtered using syringe and cellulose membrane filter. […] To determine the enzyme activity of PPO protein, a reaction mixture was prepared with the following composition (based on 10 ml): 50 mM Tris-Cl (pH 8.0); 50 mM NaCl; 0.04% (v/v) Tween 20; 40 mM glucose (0.072 g); 5 units glucose oxidase (16.6 mg); and 10 units catalase (1 μl).
as §3

[4] = biological target: Spirulina subsalsa PPO CyPPO16 (SEQ ID NO: 1) variant R85A (MBP fusion); experiment: PPO enzyme inhibition (IC50), MBP-fused PPO; settings: 50 μM protoporphyrinogen IX, pH 8.0, room temperature, 30 min
Procedure: as §1, §5, §6, §3

[5] = biological target: Spirulina subsalsa PPO CyPPO16, wild type, SEQ ID NO: 1 (MBP fusion); experiment: PPO enzyme inhibition (IC50), MBP-fused PPO; settings: 50 μM protoporphyrinogen IX, pH 8.0, room temperature, 30 min
Procedure: as §1, §5, §6, §3

[6] = biological target: Spirulina subsalsa PPO CyPPO16 (SEQ ID NO: 1) variant V160C (MBP fusion); experiment: PPO enzyme inhibition (IC50), MBP-fused PPO; settings: 50 μM protoporphyrinogen IX, pH 8.0, room temperature, 30 min
Procedure: as §1, §5, §6, §3

[7] = biological target: Spirulina subsalsa PPO CyPPO16 (SEQ ID NO: 1) variant A162L (MBP fusion); experiment: PPO enzyme inhibition (IC50), MBP-fused PPO; settings: 50 μM protoporphyrinogen IX, pH 8.0, room temperature, 30 min
Procedure: as §1, §5, §6, §3

[8] = biological target: Spirulina subsalsa PPO CyPPO16 (SEQ ID NO: 1) variant L327T (MBP fusion); experiment: PPO enzyme inhibition (IC50), MBP-fused PPO; settings: 50 μM protoporphyrinogen IX, pH 8.0, room temperature, 30 min
Procedure: as §1, §5, §6, §3

[9] = room temperature, 20 min time course, Michaelis-Menten

| SMILES | Vmax compared with AtPPO1 [1] | Vmax [1, 9] | Vmax compared with AtPPO1 [2] | Vmax [2, 9] | IC50 [3] [µM] | IC50 [4] [µM] | IC50 [5] [µM] | IC50 [6] [µM] | IC50 [7] [µM] | IC50 [8] [µM] |
| --- | --- | --- | --- | --- | --- | --- | --- | --- | --- | --- |
| C=Cc1c2[nH]c(c1C)Cc1[nH]c(c(CCC(=O)O)c1C)Cc1[nH]c(c(C)c1CCC(=O)O)Cc1[nH]c(c(C)c1C=C)C2 [protoporphyrinogen IX] | more than two times higher | 336 nmole mg protein^−1 min^−1 | more than two times higher | 378 nmole mg protein^−1 min^−1 |  |  |  |  |  |  |
| C#CCN1C(=O)COc2cc(F)c(N3C(=O)C4=C(CCCC4)C3=O)cc21 [flumioxazin] |  |  |  |  | 0.038 | 0.059 | 0.014 | 0.057 | 0.578 | 0.78 |
